Assay results published in patent US11911376B2, “Methods for preventing and treating retinal damage” (THE REGENTS OF THE UNIVERSITY OF COLORADO, priority 2020, dated 2024).

Key:
[1] = test system: retinal ganglion cells (RGCs); assay: Ischemia/reperfusion (I/R) injury model in mice, Brn3a-positive RGC loss in flat-mounted retinas; format: in vivo, WT (C57BL/6J) mice
Procedure: To evaluate the effects of kynurenic acid on retinal conditions characterized by RGC death, e.g., glaucoma, wild-type (WT) mice were subjected to ischemia/reperfusion (I/R) injury, which induced RGC death. I/R injury was performed by first anesthetizing 12-week-old WT (C57BL/6J) mice with an intraperitoneal injection of ketamine/xylazine confirmed by the toe-pinch test. The mice were then placed on a heating pad throughout the procedure to maintain their body temperature. The right eye of each animal was cannulated into the anterior chamber with a 33-gauge needle connected to an elevated saline reservoir. The height of the reservoir was adjusted to achieve an intraocular pressure of 120 mmHg. After 60 min of this procedure, the needle was removed.
(§1) Treatment mice were given kynurenic acid intravenously or intravitreally, while control mice were subjected to the same I/R injury but not given kynurenic acid. Intravenous and intravitreal administration of kynurenic acid was performed immediately after I/R injury and again 24 hours post-injury. Kynurenic acid was injected intravenously via the tail vein into WT mice at a concentration of 2.5 mg/animal (25 mg/mL stock dissolved in 0.1 N NaOH, diluted in 0.1 M sodium phosphate buffer, and adjusted to pH 7). After 2 hours, kynurenic acid levels in the serum and retina were measured. Control animals received 0.1 M sodium phosphate buffer (pH 7) alone.
Kynurenic acid was injected intravitreally into separate WT mice at a concentration of either 5 or 10 μg/animal (5 mg/mL stock of kynurenic acid was dissolved in 0.1 N NaOH and diluted in 0.1 M sodium phosphate buffer adjusted to pH 7). Control animals were intravitreally injected with buffer alone. Intravitreal injection was performed using a 33-gauge needle attached to a Hamilton syringe (Hamilton Bonaduz AG, Bonaduz, Switzerland). The eye lids were carefully parted, and the 33-gauge needle was inserted at a 45° angle into the vitreous, just behind the limbus. One or two microliters of solution was injected in 1 μL increments with a 30 second gap between each injection. After injection, the needle was slowly withdrawn, and the injected area was treated with a topical antibiotic. Mice were anesthetized with a cocktail containing ketamine and xylazine prior to the intravitreal injections.
All mice were euthanized and retinas dissected 14 days after I/R injury, flat-mounted and immunostained for Brn3a (brain-specific homeobox/POU domain protein 3A), which is a marker for RGCs.

[2] = Kynurenic acid levels in serum and retina by LC-MS/MS after intravenous injection (blood retinal barrier permeability); format: in vivo, WT mice; details: intravenous 2.5 mg/animal, two hours after injection, relative to sodium phosphate buffer-injected control mice, *p<0.05
Procedure: as §1
To first determine whether kynurenic acid is permeable across the blood retinal barrier, kynurenic acid levels in the serum and retina of six WT mice intravenously injected with kynurenic acid (KYNA) were measured by LC=MS/MS two hours after injection.

- kynurenic acid levels in retina [2]: increased significantly
- kynurenic acid levels in serum [2]: increased significantly
SMILES: O=C(O)c1cc(=O)c2ccccc2[nH]1 [kynurenic acid]
- level of RGC loss, central retina ([1]; intravenous 2.5 mg/animal immediately after I/R injury and again 24 hours post-injury, Brn3a-positive RGCs per mm2, 14 days after I/R, I/R control 36.3%): 11.2%
- level of RGC loss, peripheral retina ([1]; intravenous 2.5 mg/animal immediately after I/R injury and again 24 hours post-injury, Brn3a-positive RGCs per mm2, 14 days after I/R, I/R control 50%): 29.4%
- level of RGC loss, central retina ([1]; intravitreal 5 μg immediately after I/R and 24 hours post-injury, 14 days after I/R, I/R control 66.1%): 32.4%
- level of RGC loss, peripheral retina ([1]; intravitreal 5 μg immediately after I/R and 24 hours post-injury, 14 days after I/R, I/R control 70.9%): 46.1%
- level of RGC loss, central retina ([1]; intravitreal 10 μg immediately after I/R and 24 hours post-injury, 14 days after I/R, I/R control 66.1%): 18.5%
- level of RGC loss, peripheral retina ([1]; intravitreal 10 μg immediately after I/R and 24 hours post-injury, 14 days after I/R, I/R control 70.9%): 26.8%
